Here are results for 16 compounds from ChEMBL document CHEMBL1155870, “Design and synthesis of novel oxazole containing 1,3-dioxane-2-carboxylic acid derivatives as PPAR alpha/gamma dual agonists” (Bioorg Med Chem, 2008).

Data set [1] deals with T1, Peroxisome proliferator-activated receptor alpha (Homo sapiens) (UniProt Q07869).
T1 sequence (whole entry): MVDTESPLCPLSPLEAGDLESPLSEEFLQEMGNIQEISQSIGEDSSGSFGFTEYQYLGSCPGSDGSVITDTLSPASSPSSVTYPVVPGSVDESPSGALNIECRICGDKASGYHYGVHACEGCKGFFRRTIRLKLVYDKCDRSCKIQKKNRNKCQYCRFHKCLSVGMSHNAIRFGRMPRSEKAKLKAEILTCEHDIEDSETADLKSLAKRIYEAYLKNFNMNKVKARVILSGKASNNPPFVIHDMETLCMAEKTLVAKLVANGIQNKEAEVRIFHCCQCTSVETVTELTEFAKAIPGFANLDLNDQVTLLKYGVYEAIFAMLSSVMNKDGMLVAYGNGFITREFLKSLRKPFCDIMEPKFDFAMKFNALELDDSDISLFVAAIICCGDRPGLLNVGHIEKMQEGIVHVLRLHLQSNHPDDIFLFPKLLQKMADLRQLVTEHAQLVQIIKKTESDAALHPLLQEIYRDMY
The data set can be described thus: Agonist activity at PPARalpha expressed in human HepG2 cells at 10 uM assessed as induction of receptor transactivation by reporter gene assay relative to control. The format is functional, cell-based. On the technique in general: Reporter assays use an easily measured gene product as a stand-in for the process of interest.

Data set [2] deals with T2, Peroxisome proliferator-activated receptor alpha (Homo sapiens, UniProt Q07869).
T2 sequence (Q07869 whole entry): T1 sequence (whole entry)
The data set can be described thus: Agonist activity at PPARalpha expressed in human HepG2 cells assessed as induction of receptor transactivation by reporter gene assay relative to control. In kind it is functional, cell-based.

The target of data set [3] is T3, Peroxisome proliferator-activated receptor gamma (Homo sapiens, UniProt P37231).
T3 sequence (P37231 whole entry): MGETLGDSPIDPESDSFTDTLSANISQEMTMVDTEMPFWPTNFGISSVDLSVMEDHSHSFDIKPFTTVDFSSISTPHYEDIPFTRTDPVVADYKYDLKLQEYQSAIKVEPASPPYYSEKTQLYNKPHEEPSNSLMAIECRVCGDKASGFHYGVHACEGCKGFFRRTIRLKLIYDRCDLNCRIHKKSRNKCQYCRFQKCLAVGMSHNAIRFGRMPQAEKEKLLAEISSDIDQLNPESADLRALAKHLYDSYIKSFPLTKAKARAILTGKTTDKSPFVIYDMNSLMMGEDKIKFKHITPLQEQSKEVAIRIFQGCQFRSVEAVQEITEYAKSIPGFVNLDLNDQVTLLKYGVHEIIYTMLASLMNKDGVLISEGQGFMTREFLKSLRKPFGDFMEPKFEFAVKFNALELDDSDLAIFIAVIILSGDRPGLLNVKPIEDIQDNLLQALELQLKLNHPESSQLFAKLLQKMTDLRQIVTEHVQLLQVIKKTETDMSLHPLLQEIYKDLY
Description: Agonist activity at PPARgamma expressed in human HepG2 cells assessed as induction of receptor transactivation by reporter gene assay relative to control

In data set [4] the test system is Mus musculus. The data set can be described thus: Hypoglycemic activity in db/db mouse assessed as reduction in plasma glucose level at 30 mg/kg/day, po for 6 days. In kind it is functional, organism-based. Also noted: route oral; scale not given: the % may be the effect or the level left.
Data set [5] relates to Rattus norvegicus. Kind of data set: Insulin sensitizing activity in Zucker diabetic fa/fa rat assessed as reduction in fasted insulin level at 3 mg/kg/day, po for 14 days. More on the design: scale not given: the % may be the effect or the level left. The format is functional.
Data set [6] concerns Rattus norvegicus. The data set can be described thus: Hypoglycemic activity in Zucker diabetic fa/fa rat assessed as improvement in glucose AUC at 3 mg/kg/day, po for 14 days. In kind it is functional.
Data set [7] has as its system Mus musculus. Kind of data set: Hypolipidemic activity in db/db mouse assessed as reduction in triglyceride level at 3 mg/kg/day, po for 6 days. The format is functional. More on the design: scale not given: the % may be the effect or the level left.
The subject of data set [8] is Rattus norvegicus. Kind of data set: Hypolipidemic activity in Zucker diabetic fa/fa rat assessed as reduction in triglyceride level at 3 mg/kg/day, po for 14 days. Also noted: scale not given: the % may be the effect or the level left. The format is functional.
In data set [9] the test system is Rattus norvegicus. The data set can be described thus: Hypolipidemic activity in Zucker diabetic fa/fa rat assessed as reduction in total cholesterol level at 3 mg/kg/day, po for 14 days. In kind it is functional. More on the design: scale not given: the % may be the effect or the level left.
Data set [10] has as its system Mus musculus. Kind of data set: Hypoglycemic activity in db/db mouse assessed as reduction in plasma glucose level at 3 mg/kg/day, po for 6 days. Also noted: scale not given: the % may be the effect or the level left. In kind it is functional.
Data set [11] can be described thus: Cmax in Wistar rat at 30 mg/kg, po. The format is ADME, organism-based. More on the design: dose 30 mg/kg, route oral. Conditions: in vivo.
The nature of data set [12]: Tmax in Wistar rat at 30 mg/kg, po. The format is ADME, organism-based. More on the design: dose 30 mg/kg, route oral. Conditions: in vivo.
The nature of data set [13]: Half life in Wistar rat at 30 mg/kg, po. The format is ADME, organism-based. Also noted: dose 30 mg/kg, route oral. Conditions: in vivo.
Data set [14] in a line: AUC (0 to infinity) in Wistar rat at 30 mg/kg, po. More on the design: time infinity, dose 30 mg/kg, route oral. Conditions: plasma. The format is ADME, organism-based.

Molecules are shown by their SMILES. The source made the active and inactive calls. The rule behind the calls is not given here.

As for `Cc1cccc(Nc2cc(Cl)nc(SCC(=O)O)n2)c1C`, the fold change (FC) in data set [1] worked out at 4.4.
As for `Cc1oc(C(C)(C)C)nc1CCOc1ccc(C[C@H]2CO[C@@](C)(C(=O)O)OC2)cc1`, the EC50 (in general, the concentration that produces a half-maximal response) worked out at 4.2 nM in [2] and 5010 nM in data set [3]. Further, the fold change (FC) in data set [1] came out at 5.8.
Regarding `CN(CCOc1ccc(CC2SC(=O)NC2=O)cc1)c1ccccn1` (stereo not given) [ROSIGLITAZONE], the Activity in the data set with Mus musculus [4] was determined as 54%.
As to `Cc1ccc(-c2nc(CCOc3ccc(C[C@H]4CO[C@@](C)(C(=O)O)OC4)cc3)c(C)o2)s1`, the concentration giving a half-maximal response (EC50) in data set [2] was 0.03 nM; in data set [3] it was 239 nM. In addition, in data set [1], the fold change (FC) stood at 6.8.
Regarding `Cc1oc(C(C)(C)C)nc1COc1ccc(C[C@H]2CO[C@@](C)(C(=O)O)OC2)cc1`, in data set [1], the fold change (FC) is 2.3.
Consider `CCO[C@@H](Cc1ccc(OCCc2ccc(OS(C)(=O)=O)cc2)cc1)C(=O)O` [TESAGLITAZAR], for which the Activity in the data set on Rattus norvegicus [5] was 91%; with Rattus norvegicus [6], 51%; in the data set with Mus musculus [7], 60%; in the data set with Rattus norvegicus [8], 67%; with Rattus norvegicus [9], 16%; with Mus musculus [10], 54%.
For `Cc1ccc(-c2nc(CCCOc3ccc(C[C@H]4CO[C@@](C)(C(=O)O)OC4)cc3)c(C)o2)cc1`, in [1], the fold change (FC) is 1.8.
For the compound `Cc1ccc(-c2nc(CCOc3ccc([C@H]4CO[C@@](C)(C(=O)O)OC4)cc3)c(C)o2)cc1`, the result in data set [1] was inactive.
Turning to `Cc1ccc(-c2nc(COc3ccc([C@H]4CO[C@@](C)(C(=O)O)OC4)cc3)c(C)o2)cc1`, the fold change (FC) in data set [1] came to 2.7.
Consider `Cc1ccc(-c2nc(CCOc3ccc(C[C@H]4CO[C@@](C)(C(=O)O)OC4)cc3)c(C)o2)cc1`, for which the EC50 in data set [2] amounted to 0.089 nM; in data set [3], 1380 nM. For the same compound, in [1], the fold change (FC) is 6.3.
For `Cc1ccc(-c2nc(COc3ccc(C[C@H]4CO[C@@](C)(C(=O)O)OC4)cc3)c(C)o2)cc1`, the values for the EC50 in data set [2] and in data set [3] were 0.072 nM and 15 nM, respectively. Moreover, the Cmax (as a rule, the maximum level reached in the sampled fluid or tissue) in data set [11] is 54 µg/mL. In addition, the Activity in the data set on Rattus norvegicus [5] stood at 77%; with Rattus norvegicus [6], 51%; with Mus musculus [7] it was 50%; with Rattus norvegicus [8], 71%; in the data set on Rattus norvegicus [9], 30%; with Mus musculus [10], 57%. In addition, the Tmax (as a rule, the time at which the peak concentration occurs) in [12] is 1.7 h. Also, the fold change (FC) in data set [1] turned out to be 8.2. For the same compound, the half-life (as a rule, the time in which the quantity being followed falls by half) in data set [13] is 2.7 h. Besides, the AUC(0-inf) (commonly total exposure, with the tail of the curve extrapolated) in data set [14] stood at 351 µg·h/mL.
As to `Cc1ccc(-c2nc(COc3ccc(C[C@H]4CO[C@@](C)(C(=O)O)OC4)cc3)c(C)o2)s1`, the EC50 came out at 0.6 nM in [2] and 19.8 nM in [3]. Further, in [1], the fold change (FC) worked out at 5.6.
For `Cc1oc(-c2ccccc2)nc1COc1ccc(C[C@H]2CO[C@@](C)(C(=O)O)OC2)cc1` the same measures were 1.09 nM, 96 nM and 6.5.
Take `Cc1oc(-c2ccccc2)nc1CCOc1ccc(C[C@H]2CO[C@@](C)(C(=O)O)OC2)cc1`: the EC50 in [2] was determined as 0.272 nM; in [3] it was 4100 nM. Besides, the fold change (FC) in data set [1] was 5.3.
For `Cc1oc(-c2ccccc2)nc1CCOc1ccc([C@H]2CO[C@@](C)(C(=O)O)OC2)cc1`, the fold change (FC) in data set [1] was 3.
Turning to `Cc1oc(-c2ccccc2)nc1COc1ccc([C@H]2CO[C@@](C)(C(=O)O)OC2)cc1`, the fold change (FC) in data set [1] was found to be 3.
